This note sets out measurements from patent publication US8933079B2, “Pyridone and pyridazinone derivatives as anti-obesity agents” (Boehringer Ingelheim International GmbH, priority 2012, dated 2015).

For one data set, the target named is hMCH-1R (Homo sapiens (Human), UniProt Q99705). Description: MCH-1 receptor binding test (125I-MCH binding to hMCH-1R transfected cell membranes). To be noted: competition with 100 pM 125I-MCH, membranes of CHO/Galpha16 cells stably transfected with hMCH-1R.
In the next data set the test system is human hepatocytes. Description: Metabolic degradation in human hepatocytes (intrinsic clearance). The class given is in vitro ADME. The settings on record: human hepatocyte suspension, 1 μM test compound, 5% human serum, 6 h. The procedure:
Determination of Metabolic Degradation in Human Hepatocytes for Compounds of the Invention
The metabolic degradation of the test compound is determined in a hepatocyte suspension. Hepatocytes (typically cryopreserved) are incubated in an appropriate buffer system (e.g. Dulbecco's modified eagle medium plus 3.5 μg glucagon/500 mL, 2.5 mg insulin/500 mL and 3.75 mg/500 mL hydrocortison) containing 5% human serum.
Following a (typically) 30 min preincubation in an incubator (37° C., 10% CO2), 5 μl of test compound solution (80 μM; from 2 mM in DMSO stock solution diluted 1:25 with medium) are added into 395 μl hepatocyte suspension (cell density in the range 0.25-5 Mio cells/mL, typically 1 Mio cells/mL; final concentration of test compound 1 μM, final DMSO concentration 0.05%). The cells are incubated for six hours (incubator, orbital shaker) and samples (25 μl) are taken at 0, 0.5, 1, 2, 4 and 6 hours. Samples are transferred into acetonitrile and pelleted by centrifugation (5 min). The supernatant is transferred to a new 96-deepwell plate, evaporated under nitrogen and resuspended.
Decline of parent compound is analyzed by HPLC-MS/MS.
CLint is calculated as follows CL_[…]=Dose/AUC=(CO/CD)/(AUD+clast/k)×1000/60. C0: initial concentration in the incubation [μM], CD: cell density of vital cells [10e6 cells/mL], AUD: area under the data [μM×h], clast: concentration of last data point [μM], k: slope of the regression line for parent decline [h−1].

Chain of hMCH-1R (Q99705 whole entry): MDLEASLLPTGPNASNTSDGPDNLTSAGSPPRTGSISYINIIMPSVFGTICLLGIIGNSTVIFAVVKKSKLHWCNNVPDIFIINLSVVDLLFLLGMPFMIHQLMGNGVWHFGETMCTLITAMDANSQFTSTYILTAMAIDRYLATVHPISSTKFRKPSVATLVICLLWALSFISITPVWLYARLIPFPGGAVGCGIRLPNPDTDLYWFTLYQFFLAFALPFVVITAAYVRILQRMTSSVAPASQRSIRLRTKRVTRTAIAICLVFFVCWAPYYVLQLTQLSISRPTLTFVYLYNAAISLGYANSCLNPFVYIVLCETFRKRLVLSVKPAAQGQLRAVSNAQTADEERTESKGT

As a reminder, the IC50 is the midpoint of a concentration-inhibition curve. Lower therefore signals higher potency. `Cc1cc(CN(C)C)ccc1C(=O)Cn1ccc(OCc2ccccc2)cc1=O` [Example 1.8, 4-Benzyloxy-1-[2-(4-dimethylaminomethyl-2-methyl-phenyl)-2-oxo-ethyl]-1H-pyridin-2-one] showed an IC50 at hMCH-1R of 17 nM. The molecule also had a CLint in the data set with human hepatocytes of 3.9 μL/min/10e6 cells.

As to `COc1ccc(COc2cnn(CC(=O)c3ccc(CN(C)C)cc3C)c(=O)c2)nc1` [Example 9.1, 2-[2-(4-Dimethylaminomethyl-2-methyl-phenyl)-2-oxo-ethyl]-5-(5-methoxy-pyridin-2-ylmethoxy)-2H-pyridazin-3-one], the IC50 at hMCH-1R came out at 28 nM. In the data set on human hepatocytes, the CLint was 3.3 μL/min/10e6 cells.

`CN(C)Cc1ccc(C(=O)Cn2ccc(OCc3ccccc3)cc2=O)cc1` [Example 29.8 in WO2008/22979, reference compound]: in the data set with human hepatocytes, the CLint is 24.3 μL/min/10e6 cells.

`CN(C)Cc1ccc(C(=O)Cn2ncc(OCc3ccccc3)cc2=O)cc1` [Example 32.7 in WO2008/22979, reference compound] came in with a CLint in the data set on human hepatocytes of 16.8 μL/min/10e6 cells.

Take `Cc1cc(CN(C)C)ccc1C(=O)Cn1ccc(OCc2ccc(Br)cn2)cc1=O` [Example 4.1, 4-(5-Bromo-pyridin-2-ylmethoxy)-1-[2-(4-dimethylaminomethyl-2-methyl-phenyl)-2-oxo-ethyl]-1H-pyridin-2-one]: the half-maximal inhibitory concentration (IC50) on hMCH-1R was 17 nM. In the data set with human hepatocytes, this molecule had a CLint of 20.7 μL/min/10e6 cells.

At hMCH-1R, `Cc1cc(CN(C)C)ccc1C(=O)Cn1ncc(OCc2ccccc2)cc1=O` [Example 5.2, 5-Benzyloxy-2-[2-(4-dimethylaminomethyl-2-methyl-phenyl)-2-oxo-ethyl]-2H-pyridazin-3-one] came in with an IC50 of 9 nM. Also, the CLint in the data set with human hepatocytes amounted to 4.8 μL/min/10e6 cells.

In the case of `CN(C)Cc1ccc(C(=O)Cn2ncc(OCc3ccc(Br)cn3)cc2=O)cc1` [Example 12.2 in WO2009/103478, reference compound], the CLint with human hepatocytes is on record as 57.6 μL/min/10e6 cells.

Turning to `Cc1cc(CN(C)C)ccc1C(=O)Cn1ncc(OCc2ccc(F)cn2)cc1=O` [Example 6.5], at hMCH-1R, the half-inhibitory concentration (IC50) came out at 50 nM. Also, in the data set with human hepatocytes, the CLint is 1.7 μL/min/10e6 cells.

The molecule `CN(C)Cc1ccc(C(=O)Cn2ccc(OCc3ccc(Cl)cn3)cc2=O)cc1` [Example 9.2 in WO2009/103478, reference compound] gave a CLint in the data set with human hepatocytes of 68.8 μL/min/10e6 cells.

With `Cc1cc(CN(C)C)ccc1C(=O)Cn1ncc(OCc2ccc(Br)cn2)cc1=O` [Example 8.3, 5-(5-Bromo-pyridin-2-ylmethoxy)-2-[2-(4-dimethylaminomethyl-2-methyl-phenyl)-2-oxo-ethyl]-2H-pyridazin-3-one], the IC50 on hMCH-1R is 16 nM. Besides, the CLint in the data set with human hepatocytes was 11.5 μL/min/10e6 cells.

As for `COc1ccc(COc2cnn(CC(=O)c3ccc(CN(C)C)cc3)c(=O)c2)nc1` [Example 9.1c, 2-[2-(4-Dimethylaminomethyl-phenyl)-2-oxo-ethyl]-5-(5-methoxy-pyridin-2-ylmethoxy)-2H-pyridazin-3-one, reference compound], the CLint in the data set on human hepatocytes stood at 27 μL/min/10e6 cells.

In the case of `Cc1cc(CN(C)C)ccc1C(=O)Cn1ccc(OCc2ccc(Cl)cn2)cc1=O` [Example 3.9, 4-(5-Chloro-pyridin-2-ylmethoxy)-1-[2-(4-dimethylaminomethyl-2-methyl-phenyl)-2-oxo-ethyl]-1H-pyridin-2-one], the IC50 at hMCH-1R stood at 32 nM. The CLint in the data set on human hepatocytes came to 13.8 μL/min/10e6 cells.
